Data reported in patent US20120029187A1, “HALOALKYLSULFONANILIDE DERIVATIVE” (Nissan Chemical Industries, Ltd., priority 2009, published 2012).

Tests used:
Type in all cases: in vivo
barnyardgrass [1] = experiment: Test Example 1: herbicidal effects in preemergence treatment under submerged conditions; details: dose 2.52 g/a
In short: (§1)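 Alluvial soil was flooded to 4 cm, sown with barnyardgrass, bulrush and ducksalad, and planted with 2.5-leaf rice seedlings. On the seeding day, water-diluted emulsifiable concentrates were applied to the water surface at set doses (g/a). After three weeks in a 25 to 30° C. greenhouse, mortality was scored 0–5.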

bulrush [2] = experiment: as above; details: dose 2.52 g/a
In short: as §1

ducksalad [3] = experiment: as above; details: dose 2.52 g/a
In short: as §1

transplanted rice = experiment: Test Example 1: preemergence treatment under submerged conditions, effect on crop; details: dose 2.52 g/a
In short: as §1

barnyardgrass [4] = experiment: Test Example 2: herbicidal effects during the vegetation period under submerged conditions; details: treatment during the vegetation period under submerged conditions; dose 2.52 g/a
In short: (§2)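 Barnyardgrass, bulrush and ducksalad were co-sown in alluvial soil flooded to 4 cm and grown in a greenhouse at 25 to 30° C. At the 1- or 2-leaf stage, water-diluted emulsifiable concentrates went onto the water surface at set doses (g/a). Herbicidal effect was scored three weeks later on a graded scale.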

bulrush [5] = experiment: as above; details: treatment during the vegetation period under submerged conditions; dose 2.52 g/a
In short: as §2

ducksalad [6] = experiment: as above; details: treatment during the vegetation period under submerged conditions; dose 2.52 g/a
In short: as §2

Italian ryegrass [7] = experiment: Test Example 3: herbicidal effects in soil treatment; details: dose 3.2 g/a
In short: (§3)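 Seeds were sown in sterilized diluvial soil and covered with about 1.5 cm of soil. Compounds, formulated as emulsifiable concentrates and diluted with water, were sprayed evenly over the soil surface at set doses in g/a. Herbicidal effect was scored on a rating scale three weeks later.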

barnyardgrass [8] = experiment: as above; details: dose 3.2 g/a
In short: as §3

beadstraw [9] = experiment: as above; details: dose 3.2 g/a
In short: as §3

common chickweed [10] = experiment: as above; details: dose 3.2 g/a
In short: as §3

common lambsquater [11] = experiment: as above; details: dose 3.2 g/a
In short: as §3

common ragweed [12] = experiment: as above; details: dose 3.2 g/a
In short: as §3

giant foxtail [13] = experiment: as above; details: dose 3.2 g/a
In short: as §3

large crabgrass [14] = experiment: as above; details: dose 3.2 g/a
In short: as §3

posumbu knotweed [15] = experiment: as above; details: dose 3.2 g/a
In short: as §3

redroot pigweed [16] = experiment: as above; details: dose 3.2 g/a
In short: as §3

velvetleaf [17] = experiment: as above; details: dose 3.2 g/a
In short: as §3

water foxtail [18] = experiment: as above; details: dose 3.2 g/a
In short: as §3

wild oat [19] = experiment: as above; details: dose 3.2 g/a
In short: as §3

Italian ryegrass [20] = experiment: Test Example 4: herbicidal effect in foliage treatment; details: dose 3.2 g/a, three weeks after application
In short: (§4)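 Seeds were spot-sown in boxes of sterilized diluvial soil and raised in a greenhouse (25 to 30° C) for 14 days before a single foliar application. Compounds were applied as emulsifiable concentrates diluted with water, at predetermined doses in g/a. Injury was graded three weeks post-spray.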

barnyardgrass [21] = experiment: as above; details: dose 3.2 g/a, three weeks after application
In short: as §4

beadstraw [22] = experiment: as above; details: dose 3.2 g/a, three weeks after application
In short: as §4

common chickweed [23] = experiment: as above; details: dose 3.2 g/a, three weeks after application
In short: as §4

common lambsquater [24] = experiment: as above; details: dose 3.2 g/a, three weeks after application
In short: as §4

common ragweed [25] = experiment: as above; details: dose 3.2 g/a, three weeks after application
In short: as §4

giant foxtail [26] = experiment: as above; details: dose 3.2 g/a, three weeks after application
In short: as §4

large crabgrass [27] = experiment: as above; details: dose 3.2 g/a, three weeks after application
In short: as §4

redroot pigweed [28] = experiment: as above; details: dose 3.2 g/a, three weeks after application
In short: as §4

velvetleaf [29] = experiment: as above; details: dose 3.2 g/a, three weeks after application
In short: as §4

water foxtail [30] = experiment: as above; details: dose 3.2 g/a, three weeks after application
In short: as §4

wild oat [31] = experiment: as above; details: dose 3.2 g/a, three weeks after application
In short: as §4

posumbu knotweed [32] = experiment: as above; details: dose 3.2 g/a, three weeks after application
In short: as §4

Row | SMILES | A: barnyardgrass, herbicidal effect (evaluation scale 0-5) (barnyardgrass [1]) | B: bulrush, herbicidal effect (evaluation scale 0-5) (bulrush [2]) | C: ducksalad, herbicidal effect (evaluation scale 0-5) (ducksalad [3]) | a: transplanted rice, effect on crop (evaluation scale 0-5) (transplanted rice) | A: barnyardgrass, herbicidal effect (evaluation scale 0-5) (barnyardgrass [4]) | B: bulrush, herbicidal effect (evaluation scale 0-5) (bulrush [5]) | C: ducksalad, herbicidal effect (evaluation scale 0-5) (ducksalad [6]) | H: Italian ryegrass, herbicidal effect (evaluation scale 0-5) (Italian ryegrass [7]) | A: barnyardgrass, herbicidal effect (evaluation scale 0-5) (barnyardgrass [8]) | O: beadstraw, herbicidal effect (evaluation scale 0-5) (beadstraw [9]) | L: common lambsquater, herbicidal effect (evaluation scale 0-5) (common lambsquater [11]) | J: common ragweed, herbicidal effect (evaluation scale 0-5) (common ragweed [12]) | E: giant foxtail, herbicidal effect (evaluation scale 0-5) (giant foxtail [13]) | D: large crabgrass, herbicidal effect (evaluation scale 0-5) (large crabgrass [14]) | M: posumbu knotweed, herbicidal effect (evaluation scale 0-5) (posumbu knotweed [15]) | K: redroot pigweed, herbicidal effect (evaluation scale 0-5) (redroot pigweed [16]) | I: velvetleaf, herbicidal effect (evaluation scale 0-5) (velvetleaf [17]) | G: water foxtail, herbicidal effect (evaluation scale 0-5) (water foxtail [18]) | F: wild oat, herbicidal effect (evaluation scale 0-5) (wild oat [19]) | H: Italian ryegrass, herbicidal effect (Italian ryegrass [20]) | further results
1 | O=C1CC(C(F)(F)F)OCN1Cc1ccccc1NS(=O)(=O)C(F)(F)F (stereo not shown) [II-14] | 5 (mortality of 90% or above (nearly complete death)) | 5 (mortality of 90% or above (nearly complete death)) | 5 (mortality of 90% or above (nearly complete death)) | 0 (mortality of less than 5% (almost ineffective)) | 5 (mortality of 90% or above (nearly complete death)) | 5 (mortality of 90% or above (nearly complete death)) | 5 (mortality of 90% or above (nearly complete death)) | 3 (mortality of at least 40% and less than 70%) | 5 (mortality of 90% or above (nearly complete death)) | 5 (mortality of 90% or above (nearly complete death)) | 4 (mortality of at least 70% and less than 90%) | 4 (mortality of at least 70% and less than 90%) | 4 (mortality of at least 70% and less than 90%) | 5 (mortality of 90% or above (nearly complete death)) | 5 (mortality of 90% or above (nearly complete death)) | 4 (mortality of at least 70% and less than 90%) | 5 (mortality of 90% or above (nearly complete death)) | 5 (mortality of 90% or above (nearly complete death)) | 0 (mortality of less than 5% (almost ineffective)) | 3 (mortality of at least 40% and less than 70%) | N: common chickweed, herbicidal effect (evaluation scale 0-5) (common chickweed [10]): 5 (mortality of 90% or above (nearly complete death)); A: barnyardgrass, herbicidal effect (barnyardgrass [21]): 5 (mortality of 90% or above (nearly complete death)); O: beadstraw, herbicidal effect (beadstraw [22]): 3 (mortality of at least 40% and less than 70%); N: common chickweed, herbicidal effect (common chickweed [23]): 3 (mortality of at least 40% and less than 70%); L: common lambsquater, herbicidal effect (common lambsquater [24]): 4 (mortality of at least 70% and less than 90%); J: common ragweed, herbicidal effect (common ragweed [25]): 3 (mortality of at least 40% and less than 70%); E: giant foxtail, herbicidal effect (giant foxtail [26]): 4 (mortality of at least 70% and less than 90%); D: large crabgrass, herbicidal effect (large crabgrass [27]): 4 (mortality of at least 70% and less than 90%); K: redroot pigweed, herbicidal effect (redroot pigweed [28]): 0 (mortality of less than 5% (almost ineffective)); I: velvetleaf, herbicidal effect (velvetleaf [29]): 4 (mortality of at least 70% and less than 90%); G: water foxtail, herbicidal effect (water foxtail [30]): 5 (mortality of 90% or above (nearly complete death)); F: wild oat, herbicidal effect (wild oat [31]): 0 (mortality of less than 5% (almost ineffective))
2 | CC(C)COC(=O)N(c1ccccc1CN1COC(C(F)(F)F)CC1=O)S(=O)(=O)C(F)(F)F (stereo not shown) [II-16] | 5 (mortality of 90% or above (nearly complete death)) | 5 (mortality of 90% or above (nearly complete death)) | 5 (mortality of 90% or above (nearly complete death)) | 0 (mortality of less than 5% (almost ineffective)) | 1 (mortality of at least 5% and less than 20%) | 5 (mortality of 90% or above (nearly complete death)) | 4 (mortality of at least 70% and less than 90%) | 0 (mortality of less than 5% (almost ineffective)) | 0 (mortality of less than 5% (almost ineffective)) | 0 (mortality of less than 5% (almost ineffective)) | 1 (mortality of at least 5% and less than 20%) | 3 (mortality of at least 40% and less than 70%) | 0 (mortality of less than 5% (almost ineffective)) | 0 (mortality of less than 5% (almost ineffective)) | 0 (mortality of less than 5% (almost ineffective)) | 0 (mortality of less than 5% (almost ineffective)) | 0 (mortality of less than 5% (almost ineffective)) | 5 (mortality of 90% or above (nearly complete death)) | 0 (mortality of less than 5% (almost ineffective)) | 0 (mortality of less than 5% (almost ineffective)) | A: barnyardgrass, herbicidal effect (barnyardgrass [21]): 0 (mortality of less than 5% (almost ineffective)); O: beadstraw, herbicidal effect (beadstraw [22]): 0 (mortality of less than 5% (almost ineffective)); N: common chickweed, herbicidal effect (common chickweed [23]): 2 (mortality of at least 20% and less than 40%); L: common lambsquater, herbicidal effect (common lambsquater [24]): 3 (mortality of at least 40% and less than 70%); J: common ragweed, herbicidal effect (common ragweed [25]): 2 (mortality of at least 20% and less than 40%); E: giant foxtail, herbicidal effect (giant foxtail [26]): 0 (mortality of less than 5% (almost ineffective)); D: large crabgrass, herbicidal effect (large crabgrass [27]): 0 (mortality of less than 5% (almost ineffective)); M: posumbu knotweed, herbicidal effect (posumbu knotweed [32]): 0 (mortality of less than 5% (almost ineffective)); K: redroot pigweed, herbicidal effect (redroot pigweed [28]): 0 (mortality of less than 5% (almost ineffective)); I: velvetleaf, herbicidal effect (velvetleaf [29]): 0 (mortality of less than 5% (almost ineffective)); G: water foxtail, herbicidal effect (water foxtail [30]): 5 (mortality of 90% or above (nearly complete death)); F: wild oat, herbicidal effect (wild oat [31]): 0 (mortality of less than 5% (almost ineffective))
